Source: publication PMC7746742, “The novel rexinoid MSU-42011 is effective for the treatment of preclinical Kras-driven lung cancer” (Scientific Reports, 2020)
Read-outs that look alike come from different tables or passages of the source.

What was measured:
SREBP [1] = test: SREBP mRNA expression assay in HepG2 cells (RT-PCR); assay type: cell-based, human; settings: for Effect on the induction of SREBP mRNA by LG100268: combined with LG100268 300 nM, GSK 2033 500 nM; for Effect on the induction of SREBP mRNA by LG100268 / SREBP mRNA expression compared to the vehicle control: HX 531 100 nM; for SREBP mRNA expression compared to the vehicle control: LG100268 300 nM, T0901317 500 nM, alone or combined; for SREBP activation Fold induction vs. Control / fold induction at 0.3 µM: HepG2 cells, 300 nM rexinoids, 8 h, SREBP mRNA by RT-PCR, mean ± SD of 3 experiments; for fold induction at 0.3 µM: Homo sapiens, read-out: SREBP activation Fold induction vs. Control
Procedure: The goals of our structure–activity relationship (SAR) studies were to explore and discover new scaffolds that not only bind to RXR but also are able to independently modulate both iNOS and SREBP activity in accordance with a previously described screening paradigm. To characterize the effect of the novel rexinoids on SREBP elevation in vitro, HepG2 cells were treated with 300 nM rexinoids for 8 h and SREBP mRNA levels were measured by RT-PCR. SREBP expression ranged from no change to a 4.6-fold induction compared to the vehicle control when treated with the novel compounds. […] Analogs MSU- 41402, 41582, 41407, 41566, 41844, 41845, 42011, and 42166 induced an SREPB mRNA fold expression change of 1–1.5 normalized to a vehicle control, while bexarotene induced an mRNA fold expression change of > 2 (Table 1).
(§1) HepG2 were plated in 6-well plates (1 × 10^6 cells/well) and, after allowing the cells to attach overnight, were treated with 300 nM rexinoids and/or varying concentrations of T0901317 (TOCRIS # 2373), GSK 2033 (TOCRIS # 5694), HX 531 (TOCRIS # 3912) for 8 h. Total RNA was isolated with TRIzol (Invitrogen, Carlsbad, CA) and 2 µg RNA was used to synthesize cDNA using the SuperScript III reverse transcriptase kit (Invitrogen, Carlsbad, CA). Primers (IDT) for SREBP (F: 5′-GCCGGTTGATAGGCAGCTT-3′; R: 5′-GGTGAGTGGCGGAACCATT-3′) and GAPDH (F: 5′-[…]-3′; R: 5′-[…]-3′), the SYBR Green Supermix (Bio-rad Laboratories, Hercules, CA) and the QuantStudio 7 Flex Real-Time PCR system (95 °C for 20 s followed by 40 cycles of 95 °C for 15 s and 60 °C for 1 min were used to detect mRNA expression. Relative SREBP/GAPDH gene expression was calculated by the delta-delta Ct method. To evaluate protein expression by western blotting, HepG2 cells were plated as above and treated with 300 nM of rexinoids for 24 h. Cells were harvested and lysed in RIPA buffer (1 M Tris–Cl, 5 M NaCl, pH 7.4, 0.5 M EDTA, 25 mM sodium deoxycholate, 1% triton-X, 0.1% SDS, 0.0125% aprotinin) with protease inhibitors (1% PMSF/0.5% apoprotein/0.1%leupeptin). Protein concentration was measured using a BCA assay (Sigma-Aldrich). Proteins (10 µg/well) were separated in 10% SDS-PAGE gels and transferred to nitrocellulose membranes. Membranes were incubated with SREBP (Active Motif; 1:1000) and GAPDH (Santa Cruz Biotechnology; 1:8000) primary antibodies followed by anti-rabbit secondary antibodies conjugated to horseradish peroxidase (Cell Signaling). Signal was detected using the ECL Western Blotting Substrate (GE Healthcare), and protein levels quantified using ImageJ.

SREBP [2] = test: SREBP protein expression in HepG2 cells (western blot); assay type: cell-based, human; settings: 300 nM rexinoids, 24 h
Procedure: Although we have confirmed that the iNOS assay correlates with in vivo efficacy, few investigators have used the induction of SREBP in vitro as a biomarker to predict the ability of novel rexinoids to increase triglycerides in vivo. Elevated triglycerides are a side-effect found with many RXR agonists in preclinical models and by bexarotene in humans[13],[14]. […] HepG2 human liver cells were used, as the liver is the major organ that regulates lipid homeostasis.
as §1

iNOS = iNOS inhibition assay (LPS-induced NO production, Griess reaction); assay type: cell-based, murine; settings: RAW264.7 cells, 0–1000 nM rexinoids, LPS 1 ng/ml 24 h, NO by Griess assay, mean ± SE of 3 experiments, read-out: iNOS suppression IC50
Procedure: To evaluate the anti-inflammatory effects of the novel rexinoids, we utilized the iNOS suppression assay. Inhibition of iNOS in vitro directly correlates with efficacy in our preclinical model of Kras-driven lung cancer. RAW264.7 macrophage-like cells were treated with 0–1 μM rexinoids and stimulated with 1 ng/mL lipopolysaccharide for 24 h, and then NO was measured in the media.
RAW264.7 cells were plated in 96-well plates (20,000 cells/well). After overnight attachment, cells were treated with twofold serial dilutions (0–1000 nM) of rexinoids. After a 20 min incubation at 37 °C, cells were stimulated with 1 ng/mL LPS for 24 h. NO production was measured in culture medium using the Griess reaction. IC50 values were calculated using GraphPad Prism 8.1.2 software for Windows using a log([nM drug concentration]) vs. response curve fit.

A549 lung cancer cells = test: MTT proliferation assay; assay type: cell-based, human; settings: 0–1 μM rexinoids, 72 hr
Procedure: were treated with 0-1 μM rexinoids for 72 hr. Proliferation was measured using the MTT assay.
MTT Assay. A549 cells were plated in 96-well plates (2,000 cells/well). After overnight attachment, cells were treated with 2 fold dilutions (0-1000 nM rexinoids) for 72 hr. 50 μL 3-(4,5-dimethylthiazol-2-yl)-2,5-diphenyltetrazolium bromide (MTT; Sigma M2128) was added to each well, and cells were incubated at 37 °C for 4 hr. Media was removed and cells were lysed with developing solution (0.04 M HCl in isopropanol). Plates were read at 550 nm.
(also on this page, place not known: 110A549 Cell Proliferation (% DMSO Control) 37°C)

[3] = Plasma triglycerides in MMTV-neu mice fed rexinoids; assay type: in vivo; settings: MMTV-neu mice fed rexinoids for 10 days, n=5-6 mice/group
Procedure: fold expression triglyceride
Supplemental Fig 1. Correlation of SREPB mRNA expression and triglyceride levels. HepG2 human liver cells were treated with 300 nM of rexinoids for 8 hr,and lysates analyzed by RT-PCR. Triglycerides in plasma from MMTV-neu mice fed rexinoids for10 days were measured using a commercial kit(Abcam). *, p <0.01 vs control; **, p<0.05 vs bex and LG268; n=5-6 mice/group.

SMILES | IC50 (iNOS; Mus musculus) | fold induction at 0.3 µM (SREBP [1]; HepG2, 8 h) | other results
Cc1cc(C)c(S(=O)(=O)N(Cc2ccc(-c3cccc(S(C)(=O)=O)c3)cc2)Cc2ccc(C(F)(F)F)o2)c(C)c1 [GSK 2033] | – | – | SREBP mRNA expression lowered by (SREBP [1]; HepG2, 8 h, GSK 2033 500 nM alone): ~ 50%; Effect on the induction of SREBP mRNA by LG100268 (SREBP [1]; HepG2, 8 h): partially reversed the induction of SREBP by LG100268
CN1c2ccc([N+](=O)[O-])cc2N=C(c2ccc(C(=O)O)cc2)c2cc3c(cc21)C(C)(C)CCC3(C)C [HX 531] | – | – | SREBP mRNA expression compared to the vehicle control (SREBP [1]; HepG2, 8 h): did not alter SREBP mRNA expression; Effect on the induction of SREBP mRNA by LG100268 (SREBP [1]; HepG2, 8 h): reversed the induction of SREBP by LG100268
CC(/C=C/[C@@H]1C[C@]1(C)c1ccc2c(c1)C(C)(C)CCC2(C)C)=C\C(=O)O [IRX194204] | – | – | SREBP protein levels compared to DMSO control (SREBP [2]): increased SREBP protein levels
Cc1cc2c(cc1C1(c3ccc(C(=O)O)cn3)CC1)C(C)(C)CCC2(C)C [LG100268] | – | – | IC50 (iNOS): 83 ± 14 nM; SREBP mRNA expression compared to the vehicle control (SREBP [1]; HepG2, 8 h): 2.5 fold; SREBP activation Fold induction vs. Control (SREBP [1]): 3.06 ± 0.7 fold; SREBP protein levels compared to DMSO control (SREBP [2]): increased SREBP protein levels; Growth / proliferation of A549 lung cancer cells (A549 lung cancer cells): do not inhibit proliferation; Plasma triglyceride levels in mice [3]: 3.42 ± 0.4 nmol/µL
C/C(=C/C=C/C(C)=C/C(=O)O)c1cc(C(C)(C)C)cc(C(C)(C)C)c1OCC(F)F [LG101506] | – | – | SREBP activation Fold induction vs. Control (SREBP [1]): 1.06 ± 0.3 fold; SREBP protein levels compared to DMSO control (SREBP [2]): did not; Plasma triglyceride levels in mice [3]: 1.21 ± 0.1 nmol/µL
CCN(c1ccc(C(=O)O)cc1)c1cc(C(C)(C)C)cc(C(C)(C)C)c1 [MSU-41402] | 343 ± 62 nM | 1.37 ± 0.3 | –
C=C(c1ccc(C(=O)O)cc1)c1cc(C(C)(C)C)ccc1OCC [MSU-41403] | 331 ± 45 nM | 2.68 ± 0.2 | –
C=C(c1ccc(C(=O)O)cc1)c1cc2c(cc1C)CCCC2(C)C [MSU-41404] | 340 ± 25 nM | 3.07 ± 0.5 | –
C=C(c1ccc(C(=O)O)cc1)c1ccc(OCC(C)C)c(C(C)C)c1 [MSU-41405] | 267 ± 32 nM | 1.87 ± 0.3 | –
C=C(c1ccc(C(=O)O)cc1)c1cc(C(C)C)c(OCC(C)C)cc1C [MSU-41406] | 252 ± 55 nM | 1.67 ± 0.2 | –
C=C(c1ccc(C(=O)O)cc1)c1cc(C(C)C)c(OC(C)C)cc1C [MSU-41407] | 334 ± 17 nM | 1.08 ± 0.1 | –
C=C(c1ccc(C(=O)O)cc1)c1cc(C(C)C)c(OCC)cc1C [MSU-41408] | 300 ± 79 nM | 2.55 ± 0.7 | –
CCN(c1cc(C(C)(C)C)cc(C(C)(C)C)c1)c1ccc(C(=O)O)cn1 [MSU-41564] | 248 ± 60 nM | 2.62 ± 0.7 | –
CCOc1c(N(CC)c2ccc(C(=O)O)cc2)cc(C(C)(C)C)cc1C(C)(C)C [MSU-41565] | 366 ± 49 nM | 1.59 ± 0.2 | –
C=C(c1ccc(C(=O)O)cc1)c1cc(C(C)(C)C)cc(C(C)(C)C)c1 [MSU-41566] | 239 ± 53 nM | 1.12 ± 0.5 | –
CC(C)(C)c1cc(-n2c(C(F)(F)F)nc3cc(C(=O)O)ccc32)cc(C(C)(C)C)c1 [MSU-41567] | 271 ± 92 nM | 1.58 ± 0.2 | –
CCN(c1cc(C(C)(C)C)cc(C(C)(C)C)c1)c1ncc(C(=O)O)cn1 [MSU-41582] | 295 ± 54 nM | 1.38 ± 0.4 | –
CCN(c1ccc(C(=O)O)cn1)c1cc(C(C)(C)C)ccc1C [MSU-41583] | 290 ± 61 nM | 1.59 ± 0.5 | –
CC(C)(C)c1cc(N(CC2CC2)c2ccc(C(=O)O)cn2)cc(C(C)(C)C)c1 [MSU-41843] | 274 ± 33 nM | 2.48 ± 1.8 | –
CCN(c1cc(C(F)(F)F)cc(C(F)(F)F)c1)c1ccc(C(=O)O)cn1 [MSU-41844] | 389 ± 53 nM | 0.96 ± 0.5 | –
CCN(c1ccc(C(=O)O)cc1)c1cc(C(C)C)c(OCC(C)C)cc1C [MSU-41845] | 338 ± 31 nM | 1.45 ± 0.2 | –
CCN(c1ccc(C(=O)O)cc1)c1cc(C(C)(C)C)c(OC)c(C(C)(C)C)c1 [MSU-41846] | 347 ± 31 nM | 1.63 ± 0.3 | –
O=S(=O)(c1ccccc1)N(CC(F)(F)F)c1ccc(C(O)(C(F)(F)F)C(F)(F)F)cc1 [T0901317] | – | – | SREBP mRNA expression compared to the vehicle control (SREBP [1]; HepG2, 8 h): 2.5 fold
